Source: US20140219995A1, “INHIBITORS OF BACTERIAL TYPE III SECRETION SYSTEM” (priority 2011, published 2014)
Like-named read-outs stand apart in the source and are kept apart here.

Tests used:
[1] = tested on: T3SS-mediated secretion of ExoS′-βLA fusion protein, P. aeruginosa strain MDM973; test: Effector-β-lactamase (ExoS′-βLA) secretion assay; format: cell-based, Pseudomonas aeruginosa; settings: for IC50: Pseudomonas aeruginosa
Excerpt: Effector-β-Lactamase (βLA) Secretion Assays.
P. aeruginosa. A gene encoding an ExoS'-β-lactamase (βLA) fusion protein (comprised of 234 codons of P. aeruginosa effector ExoS fused to the TEM-1 β-lactamase gene lacking secretion signal codons) was constructed by splicing by overlap extension PCR (SOE-PCR) (Choi and Schweizer, 2005, BMC Microbiol., 5:30) using primers 5-10 (Table 3, above), sequence confirmed, cloned into lacI^Q-containing GATEWAY® vector pUCP24GW (see Moir, et al., 2007, J Biomol. Screen., 12:855-64) behind the lac promoter, and introduced into P. aeruginosa by electroporation (see Choi, et al., 2006, J. Microbiol. Methods, 64:391-7). Secretion of fusion proteins was detected by measuring the hydrolysis of the chromogenic β-lactamase substrate nitrocefin in clear 96-well microplates in a modification of a previously described assay (Lee, et al., 2007, Infect. Immun., 75:1089-98). Cells of strain MDM973 (PAK/pUCP24GW-exoS:blaM) were sub-cultured in the morning from overnight growths in LBG into 0.1 ml of LBGIE with or without test compounds and grown for 150 min. Nitrocefin (100 μg/ml final) was added, and A490 measurements taken every minute for 15 min in a Victor^3V 1420 Multilabel HTS Counter (PerkinElmer). Slopes were calculated as a relative measure of the quantity of the effector-βLA fusion protein secreted and were absolutely dependent on induction with IPTG, EGTA, and the presence of a functional pscC gene in the P. aeruginosa cells. Typical signal:background ratios were 6-10.

[2] = tested on: T3SS-mediated cytotoxicity of translocated effector protein ExoU in CHO cells; test: Inhibition of P. aeruginosa ExoU-dependent CHO cell killing (translocation, LDH release); format: cell-based; settings: Pseudomonas aeruginosa
Excerpt: Inhibition of P. aeruginosa ExoU-Dependent CHO Cell Killing.
Pseudolipasin, which acts by direct inhibition of the ExoU phospholipase, was used as control inhibitor (Lee, et al, 2007, Infect. Immun., 75:1089-98).

[3] = read-out: Avg. Translocation IC50

Structure (SMILES)	IC50 ([1]; read-out: Avg. Secretion IC50) [µM]	melting point [°C]	IC50 [2, 3] [µM]	other results
CC(C)C(Oc1ccc(Cl)cc1Cl)C(=O)NCc1ccc2c(c1)OCO2 (stereo not drawn) [MBX-2146]				effect of structural alteration on T3SS-mediated secretion inhibition ([1]; vs. MBX-1641): significantly inferior performance
CC(Oc1ccc(Cl)cc1Cl)C(=O)CCc1ccc(F)cc1 (stereo not drawn) [MBX-2719, 4-(2,4-dichlorophenoxy)-1-(4-fluorophenyl)pentan-3-one]	> 100			
CC(Oc1ccc(Cl)cc1Cl)C(=O)NCc1ccc2c(c1)CCCN2C (stereo not drawn) [MBX-2000]	25.7	119	> 100	
CC(Oc1ccc(Cl)cc1Cl)C(=O)NC(C(=O)O)c1ccc(F)cc1 (stereo not drawn) [MBX-2707]	> 100	160		
CC(Oc1ccc(Cl)cc1Cl)C(=O)NCc1ccc(F)nc1 (stereo not drawn) [MBX-2677]	40	55		
CC(Oc1ccc(Cl)cc1Cl)c1nc(Cc2ccc(F)cc2)no1 (stereo not drawn) [MBX-2708, 5-[1-(2,4-dichlorophenoxy)ethyl]-3-(4-fluorobenzyl)-1,2,4-oxadiazole]	> 100			
CC(Oc1ccc(Cl)cc1Cl)C(=O)N1CCc2cc3c(cc2C1)OCO3 (stereo not drawn) [MBX-2188]	114			IC50 ([1]; read-out: Secretion IC50): 114 µM
CC(Oc1ccc(F)cc1Cl)C(=O)NCc1ccc(F)cc1 (stereo not drawn) [MBX-2029]	52.1	95	> 100	
CC(Oc1ccc(Cl)cc1Cl)C(=O)NC(CO)c1ccc(F)cc1 (stereo not drawn) [MBX-2625]	5			
CC(Oc1ccc(Cl)cc1Cl)C(=O)N(C)Cc1ccc2c(c1)OCO2 (stereo not drawn) [MBX-2160]	10.1		24.3	effect of structural alteration on T3SS-mediated secretion inhibition ([1]; vs. MBX-1641): slightly negative impact
CC(Oc1ccc(Cl)cc1Cl)C(=O)NCc1ccc2c(c1)n(C)c(=O)n2C (stereo not drawn) [MBX-1996]	25.5	180	> 100	
COc1ccc(CNC(=O)C(C)Sc2ccc(Cl)cc2Cl)cc1OC (stereo not drawn) [MBX-2162]	30.4	112	> 100	
COc1ccc(OC)c(CNC(=O)C(C)Oc2ccc(Cl)cc2Cl)c1 (stereo not drawn) [MBX-1947]	34.8	67	> 100	
COc1ccc(CNC(=O)C(C)Oc2ccc(Cl)cc2Cl)c(OC)c1 (stereo not drawn) [MBX-1949]	16.9	117		
CC(Oc1ccc(F)cc1Cl)C(=O)NCc1ccc2c(c1)OCO2 (stereo not drawn) [MBX-2026]		95		
COc1cc(CNC(=O)C(C)Oc2ccc(Cl)cc2Cl)cc(OC)c1 (stereo not drawn) [MBX-1943]	18.8	111	23.7	
COc1cccc(CNC(=O)C(C)Oc2ccc(Cl)cc2Cl)c1 (stereo not drawn) [MBX-1941]	17.2	119		
CC(Oc1ccc(Cl)cc1Cl)C(=O)NCc1ccccc1Cl (stereo not drawn) [MBX-1956]		113	52.3	
CC(Oc1ccc(Cl)cc1Cl)C(=O)NCc1ccccc1N(C)C (stereo not drawn) [MBX-1959]	18.6	85	60	
CC(Nc1ccc(Cl)cc1Cl)C(=O)NCc1ccc(F)cc1 (stereo not drawn) [MBX-2215]	17.2			
COc1cc(CNC(=O)C(C)Oc2ccc(Cl)cc2Cl)cc(OC)c1OC (stereo not drawn) [MBX-1944]	55.5	119	> 100	
CC(C)(Oc1ccc(Cl)cc1Cl)C(=O)NCc1ccc2c(c1)OCO2 [MBX-1685]	> 100	92		effect of structural alteration on T3SS-mediated secretion inhibition ([1]; vs. MBX-1641): significantly inferior performance
COc1cccc(CNC(=O)C(C)Oc2ccc(Cl)cc2Cl)c1OC (stereo not drawn) [MBX-1948]	10.1	130	> 100	
CC(Oc1ccc(Cl)cc1Cl)C(=O)NCc1ccc(C2(C(F)(F)F)N=N2)cc1 (stereo not drawn) [MBX-2718]	> 100	117		
CC(Oc1ncc(Cl)cc1Cl)C(=O)NCc1ccc(C2(C(F)(F)F)N=N2)cc1 (stereo not drawn) [MBX-2713]	> 100	112		
CC(Oc1ccc(Cl)cc1Cl)C(=O)NC(C)c1ccc2c(c1)OCO2 (stereo not drawn) [MBX-2187]	3.8	109	11	
CC(Oc1ccc(Cl)cc1Cl)C(=O)NCc1cccc(N(C)C)c1 (stereo not drawn) [MBX-1960]	12.2	108	58	

Structure (SMILES)	IC50 ([1]; read-out: Avg. Secretion IC50) [µM]	melting point [°C]	IC50 [2, 3] [µM]	other results
CC(Oc1ccc(Cl)cc1Cl)c1nc(-c2ccc(F)cc2)no1 (stereo not drawn) [MBX-2667, 5-[1-(2,4-dichlorophenoxy)ethyl]-3-(4-fluorophenyl)-1,2,4-oxadiazole]	> 100	77		
CC(Oc1ccc(Cl)cc1Cl)C(=O)N1CCc2ccc(F)cc2C1 (stereo not drawn) [MBX-2190]	95.6		> 100	IC50 ([2]; read-out: Translocation IC50): ≥ 100 µM; IC50 ([1]; read-out: Secretion IC50): 95.6 µM
CC(Oc1ccc(Cl)cc1Cl)C(=O)OCCc1ccc(F)cc1 (stereo not drawn) [MBX-2717, 4-fluorophenethyl 2-(2,4-dichlorophenoxy)propanoate]	> 100			
COc1ccc(CNC(=O)C(C)Oc2ccc(F)cc2Cl)cc1 (stereo not drawn) [MBX-2028]	75.3	97	> 100	
COc1ccc(CNC(=O)C(C)Oc2ccc(Cl)cc2Cl)cc1OC (stereo not drawn) [MBX-1942]		127	> 100	
COc1ccc(CNC(=O)C(C)Nc2ccc(Cl)cc2Cl)cc1OC (stereo not drawn) [MBX-2213]	58.7	132		
CC(Sc1ccc(Cl)cc1Cl)C(=O)NCc1ccc2c(c1)OCO2 (stereo not drawn) [MBX-2161]	5	137		IC50 values lower (T3SS secretion inhibition) ([1]; vs. MBX-1641): 29%
O=C(COc1ccc(Cl)cc1Cl)NCc1ccc2c(c1)OCO2 [MBX-1668]	> 100	117		effect of structural alteration on T3SS-mediated secretion inhibition ([1]; vs. MBX-1641): significantly inferior performance
C[C@@H](Oc1ccc(Cl)cc1Cl)C(=O)NCc1ccc2c(c1)OCO2 [MBX-1684]	3.7			
COc1ccc(CNC(=O)C(C)Oc2ncc(Cl)cc2Cl)cc1 (stereo not drawn) [MBX-2157]	9.9	135	> 100	
COc1cc2c(cc1CNC(=O)C(C)Oc1ccc(Cl)cc1Cl)OCCO2 (stereo not drawn) [MBX-1998]	17.6	152	51.4	
COc1ccc(CNC(=O)C(C)Oc2ncc(Cl)cc2Cl)cc1OC (stereo not drawn) [MBX-2156]	24	156	> 100	
CC(Sc1ccc(Cl)cc1Cl)C(=O)NCc1ccc(F)cc1 (stereo not drawn) [MBX-2164]	4	142		
CC(Oc1ccc(Cl)cc1Cl)C(=O)NCc1ccc(-c2ccccc2)cc1 (stereo not drawn) [MBX-2022]	100	114		
CC(Oc1ccc(Cl)cc1Cl)C(=O)NCc1cnc2[nH]ccc2c1 (stereo not drawn) [MBX-2709]	8.8	198		
CC1Cc2cc(CNC(=O)C(C)Oc3ccc(Cl)cc3Cl)ccc2O1 (stereo not drawn) [MBX-2001]	14	100	84	
CC(Oc1ccc(Cl)cc1Cl)C(=O)NCc1ccc2c(c1)OCCCO2 (stereo not drawn) [MBX-1999]	23.9	115	> 100	
COc1ccc(CNC(=O)C(C)Oc2ccc(Cl)cc2Cl)cc1 (stereo not drawn) [MBX-1940]		76	12.5	
CC(Oc1ccc(Cl)cc1Cl)C(=O)NCc1ccc(N2CCCC2=O)cc1 (stereo not drawn) [MBX-1987]	18.8	138	20	
CC(Oc1ccc(Cl)cc1Cl)C(=O)N1CCc2cc(F)ccc2C1 (stereo not drawn) [MBX-2189]	111			IC50 ([1]; read-out: Secretion IC50): 111 µM
COc1ccc(CNC(=O)C(C)Oc2ccc(F)cc2Cl)cc1OC (stereo not drawn) [MBX-2027]	100	101		
COc1ccc(CNC(=O)C(C)Nc2ccc(Cl)cc2Cl)cc1 (stereo not drawn) [MBX-2214]	24.5	125		
CC(Oc1ccc(Cl)cc1Cl)C(=O)NCCCc1ccc(F)cc1 (stereo not drawn) [MBX-2622]	> 100	112		
COC(=O)C(NC(=O)C(C)Oc1ccc(Cl)cc1Cl)c1ccc(F)cc1 (stereo not drawn) [MBX-2705]	6	84		
Cc1ccccc1CNC(=O)C(C)Oc1ccc(Cl)cc1Cl (stereo not drawn) [MBX-1951]		128	66.7	
COc1cc(OC)c(OC)cc1CNC(=O)C(C)Oc1ccc(Cl)cc1Cl (stereo not drawn) [MBX-2030]	74.5	142	> 100	
